Assay results as given in the supplement of paper PMC11451515.

Key:
Assay in all cases: AUC of viability dose-response curve (% viability x log10 dose units); higher = less sensitive
Details in all cases: 48 h
NOMO1 = tested on: NOMO1
Outline: (§1)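 Seeding of medium-adapted leukemia cells was at 500 or 1000 cells/well in 1536-well plates, followed by 48 h at 37°C with library compounds in DMSO at 11 threefold doses from 47 μM to 0.79 nM. CellTiter-Glo One luminescence was normalised per plate to DMSO and cell-free wells and fitted as a four-parameter log-logistic function of log10 dose. Area under the curve was integrated by trapezoidal rule, with curves exceeding full viability scaled and curves failing quality control removed.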

P12-Ichikawa = tested on: P12-Ichikawa
Outline: as §1

SEM cells = tested on: SEM cells
Outline: as §1

[1] = RPMI 5 mM glucose + 10% dialyzed FBS

| SMILES | AUC of viability dose-response curve (NOMO1; HPLM + 10% dialyzed FBS) | AUC of viability dose-response curve (NOMO1; RPMI 5 mM glucose + 10% FBS) | AUC of viability dose-response curve (NOMO1; [1]) | AUC of viability dose-response curve (P12-Ichikawa; HPLM + 10% dialyzed FBS) | AUC of viability dose-response curve (P12-Ichikawa; RPMI 5 mM glucose + 10% FBS) | AUC of viability dose-response curve (P12-Ichikawa; [1]) | AUC of viability dose-response curve (SEM cells; HPLM + 10% dialyzed FBS) | AUC of viability dose-response curve (SEM cells; RPMI 5 mM glucose + 10% FBS) | AUC of viability dose-response curve (SEM cells; [1]) |
| --- | --- | --- | --- | --- | --- | --- | --- | --- | --- |
| CC(C)Oc1ccc(C(=O)N[C@H](CNC(=O)CN(C)C)Cc2ccc(-c3cn4cccc([C@H](C)O)c4n3)cc2)cc1Cl | 354 | 331 | 344 | 394 | 348 | 369 | 363 | 346 | 357 |
| CNC(=O)C1=CC=C(C)C(=C1)N2C(=C/C(=C(/Br)C2=O)OCC3=C(F)C=C(F)C=C3)\C | 465 | 456 | 466 | 474 | 466 | 464 | 461 | 465 | 455 |
| COc1cc(N2CCC(N(C)C)CC2)ccc1Nc1ncc(Cl)c(Nc2ccccc2P(C)(C)=O)n1 | 333 | 374 | 375 | 338 | 361 | 380 | 288 | 294 | 287 |
| COC1=CC=C2/C3=N/CCN3\C(=N/C2=C1OC)NC(=O)C4=CC=CN=C4 | 427 | 462 | 402 | 457 | 427 | 439 | 452 | 419 | 422 |
| O=c1[nH]c(=O)n(C2CCCO2)cc1F (stereo not given) | 468 | 455 | 447 | 466 | 467 | 470 | 448 | 467 | 469 |
| COC(=O)\C1=C\CCN(C)C1 | 473 | 448 | 466 | 446 | 470 | 468 | 473 | 473 | 477 |
| CC(C)(O)/C=C\C(=O)[C@](C)(O)[C@H]1[C@H](O)C[C@]2(C)[C@@H]3CC=C4[C@@H](C=C(O)C(=O)C4(C)C)[C@]3(C)C(=O)C[C@@]12C | 272 | 273 | 268 | 269 | 251 | 259 | 234 | 209 | 221 |
| CC(C)(C)[C@H](NC(=O)c1ccc(N)c(Cl)c1)C(=O)N1CCC[C@H]1C(=O)N[C@H](C#N)CC(=O)O | 359 | 343 | 354 | 377 | 387 | 419 | 429 | 470 | 451 |
| CC(C)[C@H](N)C(=O)OCCOC[N]1C=NC2=C1\N=C(N)/NC2=O | 457 | 459 | 474 | 475 | 450 | 458 | 467 | 457 | 465 |
| COc1cc(C)c(Sc2cnc(NC(=O)c3ccc(CNC(C)C(C)C)cc3)s2)cc1C(=O)N1CCN(C(C)=O)CC1 (stereo not given) | 430 | 460 | 445 | 448 | 418 | 443 | 386 | 436 | 425 |
| COC1=CC=C(C=C1O)C/2=C/C(=O)C3=C(O2)C=C(O[C@@H]4O[C@H](CO[C@@H]5O[C@@H](C)[C@H](O)[C@@H](O)[C@H]5O)[C@@H](O)[C@H](O)[C@H]4O)C=C3O | 456 | 460 | 477 | 461 | 463 | 470 | 461 | 453 | 466 |
| C[C@]12CC[C@H]3[C@@H](CCC/4=C/C(=O)CC[C@]34C)[C@@H]1CC[C@@H]2OC(=O)CCC5CCCC5 | 461 | 471 | 464 | 448 | 459 | 466 | 452 | 463 | 462 |
| COc1ncc(-c2ccc3c(Nc4cc(Oc5cc(F)cc(F)c5)cc(C(=O)O)c4)c([S+](=O)([O-])NC4CC4)cnc3c2)c(OC)n1 | 442 | 440 | 428 | 433 | 405 | 401 | 387 | 457 | 414 |
| CCN1CCN(C(=O)Cc2ccc(Nc3ncc(F)c(Nc4ccc(C(=O)Nc5ccccc5Cl)cc4)n3)cc2)CC1 | 420 | 430 | 420 | 405 | 418 | 413 | 402 | 383 | 386 |
| CN1CCN(CCOc2cc(OC3CCOCC3)c3c(Nc4c(Cl)ccc5c4OCO5)ncnc3c2)CC1 | 428 | 463 | 459 | 410 | 446 | 429 | 416 | 378 | 391 |
| OCc1ccc(-c2ccc(-c3ccc(CO)s3)o2)s1 | 437 | 432 | 428 | 429 | 429 | 415 | 450 | 386 | 453 |
| CCOC(=O)\C1=C\[C@@H](OC(CC)CC)[C@H](NC(C)=O)[C@@H](N)C1 | 440 | 450 | 454 | 463 | 460 | 419 | 416 | 432 | 414 |
| CC1(C)C(N(O)C(=O)Nc2ccc(Cl)cc2)N(c2ccc(Cl)cc2)C(=O)N1CC(=O)N/N=C/C=C/c1ccc([N+](=O)[O-])o1 (stereo not given) | 447 | 447 | 468 | 465 | 461 | 453 | 453 | 386 | 382 |
| COc1ccc2cc1Oc1ccc(cc1)C[C@H]1c3cc(c(OC)cc3CCN1C)Oc1c(OC)c(OC)cc3c1[C@H](C2)N(C)CC3 | 430 | 451 | 452 | 442 | 447 | 458 | 423 | 432 | 441 |
| C1CCN2C[C@H]3C[C@H](\C=C/4CCCN[C@@H]34)[C@H]2C1 | 462 | 447 | 452 | 456 | 457 | 457 | 465 | 449 | 457 |
| CN1CCN(C(=O)O[C@H]2c3nccnc3C(=O)N2c2ccc(Cl)cn2)CC1 | 451 | 467 | 464 | 468 | 461 | 470 | 453 | 450 | 445 |
| COc1cc(/C=C/C(=O)O)ccc1O | 463 | 452 | 438 | 452 | 434 | 441 | 411 | 412 | 460 |
| OCCC#Cc1nc(-c2ccc(F)cc2)c(-c2ccncc2)n1CCCc1ccccc1 | 463 | 465 | 472 | 476 | 467 | 468 | 475 | 467 | 456 |
| CC/1=C(\O)C(=O)\C=C2/C1=C/C=C3\[C@@]2(C)CC[C@@]4(C)[C@@H]5C[C@@](C)(CC[C@]5(C)CC[C@]34C)C(O)=O | 366 | 360 | 363 | 386 | 360 | 346 | 362 | 355 | 341 |
| CC(O)C1C2C(C)\C(=C(/N2C1=O)C(O)=O)SC3CNC(C3)C(=O)N(C)C (stereo not given) | 416 | 404 | 396 | 432 | 392 | 416 | 395 | 407 | 438 |
| C[S+](=O)([O-])c1ccc(Oc2cc(F)cc(C#N)c2)c2c1[C@H](O)C(F)(F)C2 | 455 | 462 | 448 | 467 | 469 | 472 | 467 | 459 | 467 |
| COc1cc(O)c2c(c1)C(=O)c1cc(C)cc(O)c1C2=O | 416 | 451 | 446 | 451 | 454 | 446 | 427 | 399 | 414 |
| COc1cc(C(=O)NS(=O)(=O)c2ccccc2C)ccc1Cc1cn(C)c2ccc(NC(=O)OC3CCCC3)cc12 | 371 | 378 | 384 | 411 | 380 | 383 | 323 | 338 | 319 |
| C[C@]12CCC\3=C\4CCC(=O)\C=C4CC[C@H]3[C@@H]1CC[C@@]2(O)CC#N | 436 | 468 | 454 | 473 | 466 | 468 | 437 | 445 | 451 |
| CCCC1OC2C[C@H]3[C@@H]4CCC5=CC(=O)C=C[C@]5(C)[C@H]4C(O)C[C@]3(C)[C@]2(C(=O)CO)O1 (stereo not given in full) | 446 | 460 | 458 | 324 | 290 | 252 | 317 | 304 | 311 |
